Reference: patent US20070021509A1, “Phosphate transport inhibitors” (priority 2001, published 2007)

Test system: phosphate uptake by rabbit intestinal Brush Border Membrane Vesicles (BBMV)
Experiment: 33PO4 uptake in rabbit intestinal BBMV (HTS), phosphate transporter inhibition in vitro
Type: biochemical
Conditions: Table 14, in vitro, read-out: Phosphate Transport IC50
How it was run: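 BBMV from duodenal mucosa of male New Zealand White rabbits, diluted to about 0.5-2.0 mg/mL protein. Uptake buffers carried 33PO4 at 200,000 CPM/19 μL. Controls: Na uptake buffer (max), plus 100 μM KH2PO4 pH 7.4 (mid), K uptake buffer (min).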

Structure (SMILES)	IC50
COc1ccccc1CNC(=O)c1cc(Br)ccc1NS(=O)(=O)c1ccc(OC(F)(F)F)cc1 [Example 70, 5-Bromo-N-(2-methoxy-benzyl)-2-(4-trifluoromethoxy-benzenesulfonylamino)-benzamide]	6.3 µM
O=C(NCc1ccc(F)cc1)c1cc(Br)ccc1NS(=O)(=O)c1ccc(OC(F)(F)F)cc1 [Example 71, 5-Bromo-N-(4-fluoro-benzyl)-2-(4-trifluoromethoxy-benzenesulfonylamino)-benzamide]	13 µM
O=C(NCc1ccc(OC(F)(F)F)cc1O)c1cc(Br)ccc1NS(=O)(=O)c1ccc(OC(F)(F)F)cc1 [Example 75, 5-Bromo-N-(2-hydroxy-4-trifluoromethoxy-benzyl)-2-(4-trifluoromethoxy-benzenesulfonylamino)-benzamide]	5.2 µM
COc1ccc(F)cc1CNC(=O)c1cc(Br)ccc1NS(=O)(=O)c1ccc(OC(F)(F)F)cc1 [Example 78, 5-Bromo-N-(5-fluoro-2-methoxy-benzyl)-2-(4-trifluoromethoxy-benzenesulfonylamino)-benzamide]	7.8 µM
O=C(Nc1cccc(C(F)(F)F)c1)Nc1cccc(C(F)(F)F)c1 [Example 82, 1,3Bis(3-Trifluoromethylphenyl)urea]	11 µM
O=C(Nc1cc(C(F)(F)F)cc(C(F)(F)F)c1)NC1CCCCC1 [Example 83, 1-Cyclohexyl-3-(3,5-Bistrifluoromethyl-phenyl)-urea]	7.7 µM
Cn1nc(C(C)(C)C)cc1C(=O)Nc1ccc(C(F)(F)F)cc1 [Example 84, 5-tert-Butyl-2-methyl-2H-pyrazole-3-carboxylic acid (4-trifluoromethyl-phenyl)-amide]	11 µM
O=C(Nc1cccc(C(F)(F)F)c1)Nc1cc(Cl)ccc1Cl [Example 85, 1-(2,5-Dichloro-phenyl)-3-(3-trifluoromethyl-phenyl)-urea]	10 µM
O=C(Nc1cccc(C(F)(F)F)c1)Nc1ccc(F)c([N+](=O)[O-])c1 [Example 86, 1-(4-Fluoro-3-nitro-phenyl)-3-(3-trifluoromethyl-phenyl)-urea]	2.8 µM
Cl.N=C(Nc1ccc(Br)c(C(F)(F)F)c1)Nc1ccc(Br)c(C(F)(F)F)c1 [Example 87, N,N′-Bis-(4-bromo-3-trifluoromethyl-phenyl)-guanidine Hydrochloride]	35 µM
Cl.N=C(Nc1cc(C(F)(F)F)cc(C(F)(F)F)c1)Nc1cc(C(F)(F)F)cc(C(F)(F)F)c1 [Example 88, N,N′-Bis-(3,5-bis-trifluoromethyl-phenyl)-guanidine Hydrochloride]	26 µM
Cl.N=C(Nc1ccc(Cl)c(C(F)(F)F)c1)Nc1ccc(Cl)c(C(F)(F)F)c1 [Example 89, N,N′-Bis-(4-chloro-3-trifluoromethyl-phenyl)-guanidine Hydrochloride]	16 µM
Cl.N=C(Nc1ccc(C(F)(F)F)c(C(F)(F)F)c1)Nc1ccc(C(F)(F)F)c(C(F)(F)F)c1 [Example 90, N,N′-Bis-(3,4-bis-trifluoromethyl-phenyl)-guanidine Hydrochloride]	17 µM
